Measurements as given in ChEMBL document CHEMBL3988442, “University of Dundee, Small-Polar-MMV Screening Library” (2021).

Biological target: ClpP1P2 (Mycobacterium tuberculosis (strain ATCC 25618 / H37Rv), UniProt P9WPC3+P9WPC5)
Experiment: in vitro assay to detect presence of AMC directly proportional to the activity of ClpP1P2. GHDDI collaboration.
Assay type: functional

ClpP1P2, sequence (P9WPC5 whole entry): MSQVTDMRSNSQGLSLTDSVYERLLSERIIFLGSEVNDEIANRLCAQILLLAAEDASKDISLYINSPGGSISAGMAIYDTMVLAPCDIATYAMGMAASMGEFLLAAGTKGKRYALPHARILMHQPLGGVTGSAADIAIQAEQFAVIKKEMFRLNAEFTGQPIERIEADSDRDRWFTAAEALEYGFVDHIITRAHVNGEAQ
ClpP1P2, sequence (P9WPC3 whole entry): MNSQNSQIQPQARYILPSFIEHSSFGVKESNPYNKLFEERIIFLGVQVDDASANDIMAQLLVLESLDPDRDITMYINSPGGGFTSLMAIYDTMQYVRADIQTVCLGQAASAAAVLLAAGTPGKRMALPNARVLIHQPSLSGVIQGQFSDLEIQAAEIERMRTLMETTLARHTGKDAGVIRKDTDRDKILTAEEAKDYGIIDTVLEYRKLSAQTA

| Structure (SMILES) | IC50 |
| --- | --- |
| CCC(=O)N1CCCN(c2cncc(-n3nc(C)cc3C)n2)CC1 | > 100 µM |
| Nc1nc(CN2CCOC(Cn3cccn3)C2)nc2ccccc12 (centres undefined) | > 100 µM |
| CN(C)C1CCN(c2cc(-c3ccccc3)nc3ccnn23)C1 (centres undefined) | > 100 µM |
| CN(Cc1ccsc1)C(=O)Nc1ccc(N(C)C)nc1 | > 100 µM |
| CNC(=O)c1cc2c(nc1NCC1CC1)CCN(c1ccncn1)CC2 | > 100 µM |
| CN(C)c1ncc(C2Nc3ccccc3C3=NCCCN32)cn1 (centres undefined) | > 100 µM |
| N#Cc1cccnc1N1CCCN(C(=O)CCn2cncn2)CC1 | > 100 µM |
| CC(C)c1nc2oc(C(=O)N3CCOCC3)c(N)c2c2c1CCCC2 | > 100 µM |
| CCc1nc(CN2CCCC(NCc3nc(C)c(C)o3)C2)no1 (centres undefined) | > 100 µM |
| CCn1nc(NC(=O)Cn2ccc(C(C)=O)n2)c2ccccc21 | > 100 µM |
| COCCCN1C(=O)CC[C@H]2CN(c3cnc4ccccc4n3)CC[C@H]21 | > 100 µM |
| Cc1cccc(NC(=O)c2ccc(OCc3nnnn3C)cc2)n1 | > 100 µM |
| CCc1ncc2c(n1)CN(CC(=O)Nc1nncs1)CC2 | > 100 µM |
| Cc1cnn(CCNCc2csc(-c3ccsc3)n2)c1 | > 100 µM |
| CCOCC1CN(c2ccncn2)Cc2cnn(CC)c21 (centres undefined) | > 100 µM |
| Cc1cn2c(=O)c(-c3ccnc(N[C@@H](C)CO)n3)cnc2s1 | > 100 µM |
| Cc1cnn(CC2CN(Cc3csc(C4CCCC4)n3)CCO2)c1 (centres undefined) | > 100 µM |
| CCN(Cc1nc2c(cnn2C)c(=O)[nH]1)Cc1cccs1 | > 100 µM |
| O=C(NCc1ccccn1)[C@H]1COC[C@H]2CN(C3CCCC3)C[C@H]21 | > 100 µM |
| COc1ccc(-c2cnc(N(C)C)nc2C2CNCCO2)cc1 (centres undefined) | > 100 µM |
| CNC(=O)c1cc2c(nc1NCC1CC1)CCN(S(=O)(=O)C1CC1)CC2 | > 100 µM |
| CS(=O)(=O)CC1(CNc2cc(C#N)c3cc(Cl)ccc3n2)CC1 | > 100 µM |
| Nc1ncc(-c2ccc(Cl)cc2)c(C2CCCNC2)n1 (centres undefined) | > 100 µM |
| COC(=O)N1CCC(Nc2ccc(Cl)c(C#N)n2)CC1 | > 100 µM |
| CN(C)c1nc2c(c(NCc3nnc4n3CCCCC4)n1)CCNC2 | > 100 µM |

| Structure (SMILES) | IC50 |
| --- | --- |
| Cc1nc(CN(C)C2CCN(Cc3nc4ccccc4n3C)C2)no1 (centres undefined) | > 100 µM |
| CCN(C(=O)CNc1cc(C)c(F)cc1C(N)=O)C1CC1 | > 100 µM |
| COC(=O)COc1cccc(NS(=O)(=O)c2cc(C(=O)O)cs2)c1 | > 100 µM |
| CCNc1cc2c(nn1)CCN(C(=O)c1nccnc1N)C2 | > 100 µM |
| CC(Cn1ccnc1)NC(=O)NCCc1cccs1 (centres undefined) | > 100 µM |
| CCC(C)(C)NC(=O)c1ccc(-c2ccco2)[nH]c1=O | > 100 µM |
| Cc1n[nH]c(=O)c2c(NC(=O)CN3CCOC(C)C3)oc(C)c12 (centres undefined) | > 100 µM |
| NC(=O)C1CCN(c2nc3nccc(-c4cccnc4)c3c(=O)[nH]2)CC1 | > 100 µM |
| Cc1cc(NC(=O)CN2CCn3c(nnc3C(C)C)C2)no1 | > 100 µM |
| CNC(=O)c1cnn2c(C3CCCN3)ccnc12 (centres undefined) | > 100 µM |
| COc1ncccc1CNC(=O)c1cc(C)on1 | > 100 µM |
| CNC(=O)c1cc2c(nc1NCC(C)C)CCN(S(=O)(=O)C1CC1)CC2 | > 100 µM |
| O=C(c1cc(F)ccc1F)C1CCN(C(=O)c2cnccn2)CC1 | > 100 µM |
| Cc1c[nH]nc1C1CCCN1Cc1ncc[nH]1 (centres undefined) | > 100 µM |
| CCOC1CCN(C(=O)CN(C)c2cnccn2)CC1 | > 100 µM |
| Cc1cnn(CC(C)Nc2cnc3ccccc3n2)c1 (centres undefined) | > 100 µM |
| COc1ccc(-c2ccnc3nc(N4CCCC4)[nH]c(=O)c23)cc1OC | > 100 µM |
| COc1ccnc(N2CCN(C(=O)Cc3ccsc3)CC2)n1 | > 100 µM |
| COc1cccc(-n2nnc(C(=O)N3CCN(C)CC3C)c2C)c1 (centres undefined) | > 100 µM |
| CCNC(=O)[C@@H]1C[C@H](NC(=O)c2cc(=O)[nH]c3ccc(C)cc23)CN1C | > 100 µM |
| Cc1ccc(C(=O)NC2CCN(C(=O)NCc3ccccn3)CC2)o1 | > 100 µM |
| O=C(NCC(F)(F)F)c1ccc(-c2ccco2)[nH]c1=O | > 100 µM |
| O=C(Cn1cccc2cc(-c3ccc(F)cc3)nc1-2)N1CCC(O)CC1 | > 100 µM |
| CCc1nccn1CCC(=O)N1CCCC1c1cncc(NC)n1 (centres undefined) | > 100 µM |
| COc1ccc2c(c1)C(=O)N(C)C1(CCN(CC3CC3)CC1)N2 | > 100 µM |

| Structure (SMILES) | IC50 |
| --- | --- |
| CCOc1cc(/C=C/c2ncc(C(=O)O)s2)cc(Br)c1OC | > 100 µM |
| N#Cc1cc2cc(Cl)cnc2nc1O | > 100 µM |
| CCc1ncc2c(n1)CN(CC(=O)Nc1cccnc1)CC2 | > 100 µM |
| O=C(c1ccc2ccccc2n1)N1CCC2(CCN2c2ncccn2)C1 (centres undefined) | > 100 µM |
| Cc1ccc2nc(CNc3ccccc3C(=O)NC3CC3)cn2c1 | > 100 µM |
| COc1ncc(NCc2ccsc2)cc1C(N)=O | > 100 µM |
| COCCNc1nc(NCCc2ccccc2)nc2nccnc12 | > 100 µM |
| O=C(NCC1CCCOC1)c1ccc(-c2cccs2)[nH]c1=O (centres undefined) | > 100 µM |
| CNC(=O)c1cc2c(nc1NCC(C)C)CCN(C)CC2 | > 100 µM |
| CN(Cc1noc(C2CC2)n1)C1CCN(Cc2ccccc2C#N)C1 (centres undefined) | > 100 µM |
| CNC(=O)c1cc2c(nc1NC(C)C)CCN(C(=O)NC(C)C)CC2 | > 100 µM |
| CNc1cncc(C2CCN(C(=O)c3cnco3)CC2)n1 | > 100 µM |
| Nc1nccc(-c2cccc3ccnn23)n1 | > 100 µM |
| OCCNc1nc(Nc2ccccc2)c2nccnc2n1 | > 100 µM |
| COc1ccc2c(c1)C(=O)N(C)C1(CCN(CC=C(C)C)CC1)N2 | > 100 µM |
| CCC[C@H]1CN(c2cncc(C(=O)N(C)C)n2)C[C@@H]1N(C)C | > 100 µM |
| CNCCN1C(=O)CC[C@H]2CN(c3cnc4ccccc4n3)CC[C@H]21 | > 100 µM |
| CC(O)c1cn(CC2CCN(C(=O)c3cscn3)CC2)nn1 (centres undefined) | 84.4 µM |
| CCN(CC1CCOC1)C(=O)c1cnc2onc(C)c2c1 (centres undefined) | > 100 µM |
| COCc1ccccc1CNC(=O)CNc1ccccc1C(C)=O | > 100 µM |
| Cc1nc(-c2nc(C(=O)N(C)C)c3ccccn23)cn1C(C)C | > 100 µM |
| CC(C)N1CCC(c2cc(C(F)(F)F)n3ccnc3n2)CC1 | > 100 µM |
| Cc1cccc2c1C(=O)NC1(CCOCC1)N2 | > 100 µM |
| Cc1n[nH]c(C)c1-c1cc(-c2ccc[nH]2)nc(N)c1C#N | > 100 µM |
| CN(C)C(=O)c1nc(-c2ccc(S(C)(=O)=O)cc2)c2ccccn12 | > 100 µM |

| Structure (SMILES) | IC50 |
| --- | --- |
| CCN(CC)S(=O)(=O)c1cc2c3c(c1)c(C)cc(=O)n3CC2 | > 100 µM |
| COCC(C)N1CCc2onc(-c3ccc(C(F)(F)F)cc3)c2C1 (centres undefined) | > 100 µM |
| O=C(c1cncc(NCC2COc3ccccc3C2)n1)N1CCCC1 (centres undefined) | > 100 µM |
| Cc1nn(C)c(C)c1-c1cc(-c2cc(CC(=O)O)cs2)nc(N)c1C#N | > 100 µM |
| CC(C)n1ccc(-c2cc(C(=O)N3CCN(C)CC3)c3ccccn23)n1 | > 100 µM |
| Oc1ccc(C2Nc3ccccc3C3=NCCCN32)cc1 (centres undefined) | > 100 µM |
| Cc1n[nH]c(C)c1-c1cc(-c2cccc(O)c2)nc(N)c1C#N | > 100 µM |
| Cn1ccc2c(-c3nccc(N)n3)ccnc21 | > 100 µM |
| Cc1ccccc1OCCN1CCn2c(C)nnc2C1 | > 100 µM |
| CNc1cc(C(=O)NCCC2=CSC3=NCCCN23)ccn1 | > 100 µM |
| COc1ccc2cc(CN(C)CCN3CCCCC3=O)c(=O)[nH]c2c1 | > 100 µM |
| COc1cccc(-c2cc(NCCN(C)C)nc3[nH]ccc23)n1 | > 100 µM |
| CC(C)N1CC[C@@](C)(O)[C@H](n2ccc(=O)[nH]c2=O)C1 | > 100 µM |
| O=S(=O)(c1ccccc1)N1CCOCC(Cc2cccnc2)C1 (centres undefined) | > 100 µM |
| Cc1ccc(S(=O)(=O)N2CCCC3(CCCN3S(C)(=O)=O)C2)cc1F (centres undefined) | > 100 µM |
| CN(C)C(=O)N1CCN(C(=O)c2ccn3cncc3c2)CC1 | > 100 µM |
| CC(C)SCCNC(=O)c1cccc2ccnn12 | > 100 µM |
| CC(C)n1nc2c(cc1=O)CN(Cc1nc3ccccc3o1)CC2 | > 100 µM |
| O=C(NCCCn1cncn1)c1ccc(-c2ccco2)[nH]c1=O | > 100 µM |
| N#Cc1c(N)nc2c(c1C1CCOC1)CCc1cc(O)ccc1-2 (centres undefined) | > 100 µM |
| O=C(CCc1ccc(-c2ccccc2)[nH]1)N1CCCC(n2ccnc2)C1 (centres undefined) | > 100 µM |
| O=C(NCc1cccnc1)c1ccc2nccn2c1 | > 100 µM |
| CC(C)c1nc(CN(C)C2CCN(CCc3ccncc3)C2)no1 (centres undefined) | > 100 µM |
| Cc1cnn(CC2CN(Cc3nc(C)c4ccccc4n3)CCO2)c1 (centres undefined) | > 100 µM |
| CCC[C@@H]1CN(c2cncc(C(=O)N3CCOCC3)n2)C[C@H]1N(C)C | > 100 µM |

| Structure (SMILES) | IC50 |
| --- | --- |
| CC(c1ccccn1)N(C)Cc1cc2cc3c(cc2[nH]c1=O)OCO3 (centres undefined) | > 100 µM |
| Cc1cc(NCC(=O)N(C)C)c(C(N)=O)cc1F | > 100 µM |
| Cc1cccc2c1NC1(CCCC1)NC2=O | > 100 µM |
| CCC[C@H]1CN(c2cncc(C(=O)N3CCCCC3)n2)C[C@@H]1N(C)C | > 100 µM |
| Cn1ncc2c1CCCN(C(=O)C1CCCC1)C2 | > 100 µM |
| Cc1cccc(CNc2cncc(-n3cccn3)n2)c1 | > 100 µM |
| NC(=O)CC1CCCN(c2cncc(OCc3ccccc3)n2)C1 (centres undefined) | > 100 µM |
| Cc1csc2ncc(-c3ccnc(N4CCN(C)CC4)n3)c(=O)n12 | > 100 µM |
| CC1CCN(C(=O)c2cnn3c(-c4ccco4)ccnc23)CC1 | > 100 µM |
| CN(C(=O)CCc1nc(C2CC2)no1)c1cc(C#N)c2ccccc2n1 | > 100 µM |
| CC(C)Nc1ccnc(-c2ccnc3c2ccn3C)n1 | > 100 µM |
| Cn1cc(CCC(=O)N2CCCN(c3ncccc3C#N)CC2)cn1 | > 100 µM |
| CCn1ccnc1CN1CCN(CC(O)c2cccc(F)c2)CC1 (centres undefined) | > 100 µM |
| CN(C)C1CCN(C(=O)Cc2csc(-c3ncccn3)n2)CC1 | > 100 µM |
| Cc1cc(C)n(CC2CCCN2C(=O)c2ccnc(N(C)C)c2)n1 (centres undefined) | > 100 µM |
| CC(COCC(F)(F)F)NC(=O)c1ccc(-c2ccco2)[nH]c1=O (centres undefined) | > 100 µM |
| Cn1cc(Cl)cc1C(=O)N1CCCN(Cc2ccccc2)CC1 | > 100 µM |
| Cc1nc(NC(=O)CN2C(=O)c3ccccc3NC2C(C)C)sc1C (centres undefined) | > 100 µM |
| CC(C)n1c2ccccc2c2c1cc(C(=O)NC1CC1)n2C(=O)N(C)C | > 100 µM |
| Cc1cc(C)n(CCNc2ncnc3c2NC(=O)CN3)n1 | > 100 µM |
| c1ccc(CN2CCc3ncnc(-c4ccoc4)c3CC2)nc1 | > 100 µM |
| CCCn1cc(-c2cc(-c3cc(CC)n[nH]3)c(C#N)c(N)n2)c(C)n1 | > 100 µM |
| N#Cc1cccnc1N1CCCN(C(=O)CCn2cccn2)CC1 | > 100 µM |
| Cc1nn(C)c(C)c1C1CCCN1C(=O)c1nccnc1N (centres undefined) | > 100 µM |
